Measured values from patent US20230312561A1, “SOLID FORMS OF (Z)-METHYL 3-(((4-(N-METHYL-2-(4-METHYLPIPERAZIN-1-YL)ACETAMIDO)PHENYL)AMINO)(PHENYL)METHYLENE)-2-OXO-2,3-DIHYDRO-1H-PYRROLO[2,3-B]PYRIDINE-6-CARBOXYLATE AND SALTS THEREOF” (Angion Biomedica Corp., priority 2020, published 2023).

Experiments:
Assay type in all cases: physicochemical
[1] = Dynamic Vapor Sorption (DVS) analysis with XRPD after equilibration; conditions: for moisture/water content on initial equilibration at 50% RH (DVS): beginning of analysis; for reversibility of water uptake (DVS): as relative humidity decreased
Description: Sorption isotherms were obtained using a Hiden Isochema moisture sorption analyzer (model IGAsorp), controlled by IGAsorp Systems Software V6.50.48. The sample was maintained at a constant temperature (25° C.) by the instrument controls. The humidity was controlled by mixing streams of dry and wet nitrogen, with a total flow of 250 mL·min^−1. The instrument was verified for relative humidity content by measuring three calibrated Rotronic salt solutions (10%, 50%, 88%). The weight change of the sample was monitored as a function of humidity by a microbalance (accuracy+/−0.005 mg). A defined amount of sample was placed in a tared mesh stainless steel basket under ambient conditions. A full experimental cycle typically consisted of three scans (sorption, desorption and sorption) at a constant temperature (25° C.) and 10% RH intervals over a 0-90% range (60 minutes for each humidity level). […]
This water content decreased as relative humidity decreased in the first desorption cycle.
The solid absorbed 3.39% water over the humidity range. […] The profile was similar to that of Form C in Example 7.2.

[2] = Drying studies of Compound 1 Hydrochloride (XRPD, TGA)
Description: Compound 1 Hydrochloride Form A was then subjected to drying under various conditions.
Drying studies of Compound 1 Hydrochloride Form A (Type 1 Lot) were performed.
Variability in the drying profiles of different lots of Compound 1 Hydrochloride were noted, particularly with regards to the transition between Form A and Form C. The variable behavior appeared to depend upon the nature of the input Form A batch (e.g., how it was generated and then conditioned, if at all, prior to drying, and/or if excess hydrochloric acid was present).
Concentrated HCl (154 μL, 1 eqiuv) was added which clarified the suspension to a deep orange solution. The mixture was equilibrated for 30 minutes before cooling gradually to room temperature. A thin yellow suspension resulted. The solvent volume was reduced by 50% which thickened the suspension. The suspension was matured overnight, following which the solid was filtered to isolate the solids. The solid was air dried for ˜30 minutes giving a yellow solid (damp mass: 1.24 g; pH measured at 5.0). The XRPD pattern of the damp solid corresponded with Compound 1 Hydrochloride Form H. Analysis of the damp solid by DSC and TGA indicated a water content of 8.2%, which was fairly labile up ˜75° C.
Compound 1 Hydrochloride Form H was then subjected to a drying study under various conditions.
The solids were further subjected to prolonged drying.

[3] = Solid state stability under humid conditions (40° C./75% RH and 25° C./60% RH, two weeks)
Description: Stability of Compound 1 Hydrochloride Forms A, B, C, and D was evaluated under humid conditions. Samples of Forms A, B, C, and D were stored at 40° C./75% RH and 25° C./60% RH for a period of two weeks (loosely capped glass vials with approx. 200 mg solid). Solids were then re-analyzed using methods described herein. A summary of the results is provided in Table 12 (after storage at 25° C./60% RH) and Table 13 (after storage at 40° C./75% RH).

[4] = Form stability on standing on bench or at 40° C./75% RH (XRPD)
Description: Two samples of the solid were stored under glass with loose fitting lids on a bench and at 40° C./75% RH for a period of 5 days and re-analyzed by XRPD.
In an additional experiment, a sample of Form F was left to stand on a bench in a loosened vial for 48 hours.

[5] = Dry in vacuo at 25° C., T = 24 h
[6] = Dry in vacuo at 25° C., T = 48 h
[7] = under glass with loose fitting lid, 5 days
[8] = Form C prepared from Form A, Type 1 Lot
[9] = Form C prepared from Form A, Type 2 Lot

## COC(=O)c1ccc2c(c1)NC(=O)/C2=C(\Nc1ccc(N(C)C(=O)CN2CCN(C)CC2)cc1)c1ccccc1.Cl [Compound 1 Hydrochloride Form A (Type 2 Lot)]
[1]; 0% RH
  XRPD analysis following equilibration at 0% RH: mixture of Form A and Form C
[1]
  moisture/water content on initial equilibration at 50% RH (DVS): 6.39%
[1]; 90% RH
  XRPD analysis following equilibration at 90% RH: predominantly Form A
[1]; first desorption cycle
  uptake of water following initial equilibration at 50% RH during first desorption cycle (DVS): −7%
[1]; first sorption cycle
  water absorbed over the humidity range, first sorption cycle (DVS): 8.66%
[2]; Dry in vacuo at 25° C., T = 4 h
  TGA (%): 9.96%
[2]; [5]
  TGA (%): 7.09%
  XRPD: Form A
[2]; [6]
  TGA (%): 6.61%
  XRPD: Form A
[2]; Dry in vacuo at 25° C., T = 120 h
  TGA (%): 3.45%
[2]; Dry in vacuo at 45° C., T = 4 h
  TGA (%): 9.89%
[2]; Dry in vacuo at 45° C., T = 24 h
  TGA (%): 6.93%
[2]; Dry in vacuo at 45° C., T = 48 h
  TGA (%): 6.63%
[2]; Dry in vacuo at 45° C., T = 120 h
  TGA (%): 2.27%
[2]; Dry in vacuo at 70° C., T = 4 h
  TGA (%): 8.93%
[2]; Dry in vacuo at 70° C., T = 24 h
  TGA (%): 6.49%
[2]; Dry in vacuo at 70° C., T = 48 h
  TGA (%): 6.68%
[2]; Dry in vacuo at 70° C., T = 120 h
  TGA (%): 2.17%
[2]; T = 0, before drying
  TGA (%): 14.83%
[2]; summary of drying studies, Table 10
  level of hydration after extended drying: reduced to 2-3%
[3]; 25° C./60% RH
  XRPD After Storage: Form A/C
[3]; 40° C./75% RH
  XRPD After Storage: amorphous

## COC(=O)c1ccc2c(c1)NC(=O)/C2=C(\Nc1ccc(N(C)C(=O)CN2CCN(C)CC2)cc1)c1ccccc1.Cl [Compound 1 Hydrochloride Form B]
[1]; 0% RH
  XRPD analysis following equilibration at 0% RH: Form F
[1]
  moisture/water content on initial equilibration at 50% RH (DVS): 4.2%
  reversibility of water uptake (DVS): reversible
[1]; 90% RH
  XRPD analysis following equilibration at 90% RH: Form H
[1]; above 70% RH
  level of water reached in initial sorption step after 70% RH (DVS): 17.3%
[1]; initial desorption step
  loss of water on the initial desorption step (DVS): ~1.5%
[1]; second desorption step
  water content after the second desorption step (DVS): 1.1%
[3]; 25° C./60% RH
  TGA After Storage: further loss above/post 200° C.: 1.41% post 200 °C
  TGA After Storage: weight reduction to 60° C.: Weight reduction of 1.69% to 60 °C
  XRPD After Storage: Form B
[3]; 40° C./75% RH
  TGA After Storage: further loss above/post 200° C.: followed by further loss of 1.4%
  TGA After Storage: weight reduction to 60° C.: Weight reduction of 1.0% to 60 °C
  XRPD After Storage: Form H

## COC(=O)c1ccc2c(c1)NC(=O)/C2=C(\Nc1ccc(N(C)C(=O)CN2CCN(C)CC2)cc1)c1ccccc1.Cl [Compound 1 Hydrochloride Form C]
[4]; [7]
  XRPD after storage at 40° C./75% RH: no change from Form C
  XRPD after storage on a bench: no change from Form C
[1]; 0% RH
  XRPD analysis following equilibration at 0% RH: remained Form C
[1]; 90% RH
  XRPD analysis following equilibration at 90% RH: Form A
[1]; [8]
  water absorbed above 70% RH (DVS): 8.38%
  water absorbed up to 70% RH, initial sorption step (DVS): 1.44%
  water content reached over the humidity range on second sorption cycle (DVS): 10%
[1]; [9]
  XRPD analysis following equilibration at 0% RH: remained Form C
  XRPD analysis following equilibration at 90% RH: remained Form C
  water absorbed over the humidity range (DVS): 3.39%
  water absorbed up to 80% RH (DVS): 1.55%
[1]
  reversibility of water uptake (DVS): reversible
[2]; equilibrated in water for 48 hours
  form after equilibration in water (damp solid, XRPD): readily converted to Form A
[3]; 25° C./60% RH
  TGA After Storage: further loss above/post 200° C.: 0.98% post 200 °C
  XRPD After Storage: Form C
[3]; 40° C./75% RH
  TGA After Storage: further loss above/post 200° C.: 1.0% post 200 °C
  XRPD After Storage: Form C

## COC(=O)c1ccc2c(c1)NC(=O)/C2=C(\Nc1ccc(N(C)C(=O)CN2CCN(C)CC2)cc1)c1ccccc1.Cl [Compound 1 Hydrochloride Form D]
[3]; 25° C./60% RH
  TGA After Storage: further loss above/post 200° C.: 1.51% post 200 °C
  XRPD After Storage: Form D
[3]; 40° C./75% RH
  TGA After Storage: further loss above/post 200° C.: 1.68% post 200 °C
  XRPD After Storage: Form D

## COC(=O)c1ccc2c(c1)NC(=O)C2=C(Nc1ccc(N(C)C(=O)CN2CCN(C)CC2)cc1)c1ccccc1.Cl [Compound 1 Hydrochloride Form F]
[4]; 48 hours
  form after standing on a bench in a loosened vial (XRPD and TGA): fully converted into Form H
[2]; all drying temperatures (25, 45, 70° C.)
  behaviour on prolonged drying: robust toward further changes
